Read-outs that look alike come from different tables or passages of the source. Ends that are not written are not given here.
How the values were obtained:
[1] = hypotensive activity in male Wistar rats under nembutal anesthesia; format: in vivo, rat
Description: Using male Wistar rats having a body weight of 350 g under nembutal anesthesia, the hypotensive activity was measured.

adenylate cyclase = conditions: rat pituicytes

“PACAP38 NH2: PACAP38 NH2 synthesized on p-methyl BHA resin according to the amino acid sequence of PACAP38 (Example 5) (HSDGIFTDSYSRYRKQMAVKKYLAAVLGKRYKQRVKNK-NH2; UniProt P18509 132-169, looked up)” gave a hypotensive activity ([1]; dosage 0.3 n mole/kg) of 3.2 ± 1.9 mm Hg, a hypotensive activity ([1]; dosage 1.0 n mole/kg) of 17.4 ± 2.4 mm Hg and a hypotensive activity ([1]; dosage 3.0 n mole/kg) of 29.8 ± 3.6 mm Hg.
Work on “Syn.27p-NH2: synthesized 27-NH2, the 1st to 27th positions of mature PACAP38, formula (1")” yielded a hypotensive activity ([1]; dosage 0.3 n mole/kg) of 14.5 ± 3.1 mm Hg, a hypotensive activity ([1]; dosage 1.0 n mole/kg) of 51.9 ± 9.6 mm Hg and a hypotensive activity ([1]; dosage 3.0 n mole/kg) of 4.1 mm Hg. For the same substance, the “cAMP (M ± SEM)” value (adenylate cyclase; peptide 10^-7 M) was 9.20 ± 0.20 p mol/ml, the “cAMP (M ± SEM)” value (adenylate cyclase; peptide 10^-8 M) was 9.20 ± 0.00 p mol/ml and the “cAMP (M ± SEM)” value (adenylate cyclase; peptide 10^-9 M) was 7.90 ± 0.30 p mol/ml. For the same substance, the “cAMP (M ± SEM)” value (adenylate cyclase; peptide 10^-10 M) was 4.00 ± 0.20 p mol/ml, the “cAMP (M ± SEM)” value (adenylate cyclase; peptide 10^-11 M) was 2.55 ± 0.15 p mol/ml and the “cAMP (M ± SEM)” value (adenylate cyclase; peptide 10^-12 M) was 2.05 ± 0.15 p mol/ml.

Reference: patent US5198542A, “DNA encoding a pitvitary adenylate cyclase activating protein and use thereof” (Takeda Chemical Industries, Inc., priority 1989, dated 1993)
